Kd and IC50 data for 7 compounds are collected here from ChEMBL document CHEMBL1144354, “Frontal affinity chromatography with MS detection of EphB2 tyrosine kinase receptor. 2. Identification of small-molecule inhibitors via coupling with virtual screening” (J Med Chem, 2005).

Test [1] concerns the target T1, Ephrin type-B receptor 2 (Homo sapiens, UniProt P29323).
T1 sequence (P29323 whole entry): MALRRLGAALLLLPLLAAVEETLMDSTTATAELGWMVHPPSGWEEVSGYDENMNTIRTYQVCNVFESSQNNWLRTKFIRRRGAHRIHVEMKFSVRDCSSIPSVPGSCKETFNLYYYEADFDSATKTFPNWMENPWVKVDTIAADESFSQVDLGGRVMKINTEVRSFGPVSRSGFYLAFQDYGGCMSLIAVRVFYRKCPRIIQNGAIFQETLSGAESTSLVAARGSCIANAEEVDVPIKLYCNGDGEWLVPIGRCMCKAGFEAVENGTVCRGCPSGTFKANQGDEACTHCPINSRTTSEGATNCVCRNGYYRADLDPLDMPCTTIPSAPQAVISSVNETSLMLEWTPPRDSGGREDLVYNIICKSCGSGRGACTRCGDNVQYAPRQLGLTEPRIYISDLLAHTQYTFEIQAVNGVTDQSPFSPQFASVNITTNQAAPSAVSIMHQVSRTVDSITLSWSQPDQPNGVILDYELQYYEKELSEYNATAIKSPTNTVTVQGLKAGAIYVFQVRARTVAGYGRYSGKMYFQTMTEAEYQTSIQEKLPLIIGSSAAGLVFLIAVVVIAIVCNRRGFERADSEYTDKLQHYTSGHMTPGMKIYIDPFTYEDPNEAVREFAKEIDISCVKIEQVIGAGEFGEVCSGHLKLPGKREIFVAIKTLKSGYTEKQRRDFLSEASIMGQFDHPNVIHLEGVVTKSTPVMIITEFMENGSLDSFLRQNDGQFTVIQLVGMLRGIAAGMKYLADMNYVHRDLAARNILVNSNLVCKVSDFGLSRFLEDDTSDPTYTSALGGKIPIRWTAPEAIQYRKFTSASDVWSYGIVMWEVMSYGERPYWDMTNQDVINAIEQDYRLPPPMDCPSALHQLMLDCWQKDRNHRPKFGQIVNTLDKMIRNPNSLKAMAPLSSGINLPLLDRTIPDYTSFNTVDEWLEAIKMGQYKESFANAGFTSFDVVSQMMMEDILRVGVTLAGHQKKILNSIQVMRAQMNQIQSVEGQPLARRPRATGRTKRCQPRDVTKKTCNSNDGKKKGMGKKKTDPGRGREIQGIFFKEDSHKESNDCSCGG
Nature of the test: Equilibrium binding constant for EPH receptor B2.

Test [2] deals with T1, Ephrin type-B receptor 2. Nature of the test: Inhibition of EPH receptor B2 using ELISA. On the technique in general: In an ELISA, binding on a coated surface is turned into a signal by an enzyme label.

Structures are written as SMILES.

On to `COc1cc2ncnc(Nc3cccc(O)c3)c2cc1OC`, for which the Kd (in general, a measure of binding affinity in units of concentration) at Ephrin type-B receptor 2 [1] is 2.4 µM. Further, the IC50 (in general, the point on the concentration scale where inhibition reaches its midpoint) against Ephrin type-B receptor 2 [2] is 1.2 µM. For `CNc1ccc2c(Nc3cccc(Br)c3)ncnc2c1` the same measures were 21.9 µM and 34 µM. `COc1cc2ncnc(Nc3cccc(Br)c3)c2cc1OC` showed a Kd on Ephrin type-B receptor 2 [1] of 8.1 µM. Further, the IC50 against Ephrin type-B receptor 2 [2] is 10.2 µM.

At Ephrin type-B receptor 2 [1], `CC(C)(C)n1nc(-c2ccc(Cl)cc2)c2c(N)ncnc21` returned a Kd of 36.5 µM. This compound also came in with an IC50 against Ephrin type-B receptor 2 [2] of 52 µM. In turn, `O=C1C=C(Nc2ccc(O)cc2)C(=O)c2ccccc21` registered an IC50 at Ephrin type-B receptor 2 [2] of 38 µM. Regarding `COc1cc2ncnc(Nc3ccc(Oc4ccccc4)cc3)c2cc1OC`, binding at Ephrin type-B receptor 2 [1] was characterised by a dissociation constant (Kd) of 58.4 µM. On Ephrin type-B receptor 2 [2], this compound had an IC50 of 86 µM. In the same order, the values of `CN(C)c1ccc(/C=C2/C(=O)Nc3ccccc32)cc1` are 19.5 µM and 27.5 µM.
